Where a SMILES comes first, the peptide text is derived from it. The star is where a group is joined. Orn(α-tetramethylguanidino) = CN(C)C(=N[C@@H](CCCN)C(=O)*)N(C)C
Assays:
[1] = in vivo; parameters: species or system NMRI mice; conditions: mouse, ip; for C0: c0 (initial concentration at time point 0 min)
From the text: (§1) A protocol to quantify Api88, Api137, and their major metabolites was established analog to that of oncocin derivatives, reported recently (Schmidt et al., [2016]). Briefly, an Alliance® 2695 HPLC system was coupled online to an ESI-QqLIT-MS (4,000 QTRAP®) equipped with a TurboV™ ion-spray source and operated in positive ion MRM mode using the Analyst® 1.6 software. Separation was achieved on a Jupiter C18-column (internal diameter 1 mm, length 150 mm, particle size 5 μm, pore size 300 Å) at 55 °C using a linear 5-min gradient from 2.7 to 20.7% aqueous acetonitrile containing ammonium formate (26 mmol/L, pH 3.0). Further details about instrumentation, MRM optimization, and MS settings are provided as Supplementary Material (Tables S1–S4, Method M1).
(§2) Female NMRI mice (8–9 weeks, 25–35 g) were injected intraperitoneally (10 mL/kg) with peptides dissolved in sterile PBS (Gibco® Life Technologies™, Darmstadt, Germany) at concentrations of 0.5 or 2 g/L corresponding to doses of 5 or 20 mg/kg body weight, respectively. After 10, 20, 30, 60, or 90 min animals (n = 7) were euthanized by carbon dioxide inhalation and terminal bleeding via cardiac puncture. Lithium-heparin plasma (n = 7) was prepared and stored at −80°C. Immediately after the final bleed, mice were perfused through the left ventricle with saline (0.9%, 50 mL, ~3 min) to remove blood from all organs controlled by discoloration of the liver. Organs were removed aseptically and directly frozen in liquid nitrogen. Spontaneously released urine was collected and frozen immediately at −80°C.
(§3) Method M1: M ultiple reaction monitoring (MRM) transitions for apidaecin peptides Peptides (1 µ g/ m L ) were dissolved inaqueous acetonitrile (25% or 60% v/ v) containing either formate buffer (26 mmol/ L, pH 2.6, 3.0, 3.3 or 3.9 ) or formic acid (0.1% v/v ) and infused (flow rate 5 µ L/min, PHD 2600 s yringe pump) into the ES I-Q q L IT -MS (4000 QTRAP®) to optimize buffer composition and MRM. Transitions were selected from the tandem mass spectra (MS/MS) and confirmed on an ESI-QqTOF-MS (QSTAR® pulsar I) providing higher mass resolutions and mass accuracies than the QTRAP ®. The settings for declustering potential (DP), collision potential (CE), and collision cell exit potential (CXP) were optimized by ramping the respective pot entials using the compound optimization tool of the Anal yst® software.
(§4) Method M2: Sample preparation
(§5) Frozen organs (5 per group) wer e homogenized in sterile PBS (500 µ L) containing Protease Inhibitor Mix M (1% v/v; SERVA Electrophoresis GmbH, Heidelberg, German y) using an Ultra-Turr ax ® T25 basic (IKA-Werke, Staufen, German y, rotational speed 21,500 min-1) for 1 min. Homogenates were sonicated on ice (35% amplitude, mode: 5 s on; 5 s off for 1 min; Vibra-cell™ 75041, Thermo Fisher Scientific) to disrupt cells. After centrifugation (15 min, 21,460 x g, 4°C) the supernatants were stored at - 80°C.
(§6) Aliquots of plasma (10 µL) or liver (10 µ L), kidney (50 µ L), and brain hom ogenates (100 µ L) were spiked with isotope -labeled Api88, Api137, Api1- 16, and Api1- 17 (2.5 µ g/ m L). The samples were diluted fourfold with aqueous phosphoric acid (3.4% v/v), loaded on an Oasis H LB 9 6 -well solid phase extraction (SPE) plate (5 mg sorbent, Waters ), washed with aqueous methanol (0.3 m L, 5% v/ v), eluted with methanol (0.3 m L), and dried in a vacuum centrifuge (30 °C; SpeedVac, Eppendorf ). The samples were dissolved prior analysis in aqueous acetonitrile (3% v/v) containing formic acid (0.1 % v/v).
(§7) Stock solutions (1 g/L) of the peptides and their corresponding isotope-labelled internal standards were prepared and diluted in water. Calibration and validation mixtures (10 µL) of unlabeled (0.025, 0.1, 0.5 or 2.5 µg/m L) and isotope-labeled peptides ( 2.5 µ g/ m L ) w ere mix ed with plasma or organ homogenates (10 to 100 µL) obtained from untreated animals fo r […]
(§8) Limits of detection (LOD) and quantification (LOQ) corresponded to the lowest peptide […]

[2] = Organ distribution (blood, kidney, liver and brain homogenates, urine) after intraperitoneal administration; type: in vivo, NMRI mice; conditions: for Peptide level in brain homogenates (not detected, less than LOD) / Peptide level in brain (not detected, LOD converted to brain weight) / Recovered peptide amount in kidneys of treated animals / Recovery rate in blood relative to the injected peptide amount / Concentration in urine: mouse, in vivo, ip
From the text: as §1, §2, §3, §4, §5, §6, §7, §8

[3] = in vitro; type: in vitro ADME, CD-1 mice; conditions: female, CD-1, mouse, cerebrospinal or other body fluid
Procedure: Peritoneal lavage (1.5–2 mL) were collected from three euthanized female CD-1 mice (14 weeks, 32–33 g) after injecting sterile PBS intraperitoneal (4 mL). Peptides were incubated with aliquots (95 μL) of fresh lavage (75 μg/mL, 37°C, 750 rpm). After 0, 30, and 60 min trichloroacetic acid (25 μL, 15% w/v) was added to the samples to precipitate proteins, incubated on ice (10 min), and centrifuged (5 min, 12.400 × g). Supernatants were neutralized with sodium hydroxide (1 mol/L) and analyzed by RP-HPLC using a Poroshell 120 SB-C18-column (2.1 mm internal diameter, 100 mm length, 2.7 μm particle size, 12 nm pore size, Agilent Technologies Inc., Santa Clara, CA, USA) at 60°C and an aqueous acetonitrile gradient containing trifluoroacetic acid (0.1%, v/v). Absorbance was recorded at a wavelength of 214 nm.

| Structure (SMILES) | AUC(0-inf) ([1]; female, NMRI, 5 mg/kg) | Cmax ([1]; female, NMRI, 5 mg/kg) | MRT ([1]; female, NMRI, 5 mg/kg) | clearance ([1]; female, NMRI, 5 mg/kg) | half-life ([1]; female, NMRI, 5 mg/kg) | C0 ([1]; female, NMRI, 5 mg/kg) | AUC(0-inf) ([1]; female, NMRI, 20 mg/kg) | Cmax ([1]; female, NMRI, 20 mg/kg) | MRT ([1]; female, NMRI, 20 mg/kg) | clearance ([1]; female, NMRI, 20 mg/kg) | half-life ([1]; female, NMRI, 20 mg/kg) | Time within which peptide is cleared [1] | AUMC0 → ∞ ([1]; 5 mg/kg) | Detection in plasma ([1]; 5 mg/kg) | Volume of distribution ([1]; 5 mg/kg) | k (elimination constant) ([1]; 5 mg/kg) | AUMC0 → ∞ ([1]; 20 mg/kg) | Volume of distribution ([1]; 20 mg/kg) | c0 (initial concentration at time point 0 min) ([1]; 20 mg/kg) | k (elimination constant) ([1]; 20 mg/kg) | also measured |
| --- | --- | --- | --- | --- | --- | --- | --- | --- | --- | --- | --- | --- | --- | --- | --- | --- | --- | --- | --- | --- | --- |
| CC[C@H](C)[C@H](NC(=O)[C@H](Cc1ccc(O)cc1)NC(=O)[C@@H](NC(=O)[C@@H]1CCCN1C(=O)[C@H](CCCNC(=N)N)NC(=O)[C@H](CC(N)=O)NC(=O)[C@H](CC(N)=O)NC(=O)[C@H](CCCN)N=C(N(C)C)N(C)C)C(C)C)C(=O)N1CCC[C@H]1C(=O)N[C@@H](CCCNC(=N)N)C(=O)N1CCC[C@H]1C(=O)N[C@@H](CCCNC(=N)N)C(=O)N1CCC[C@H]1C(=O)N1CCC[C@H]1C(=O)N[C@@H](Cc1c[nH]cn1)C(=O)N1CCC[C@H]1C(=O)N[C@@H](CCCNC(=N)N)C(=O)N[C@@H](CC(C)C)C(=O)O [Api137] ({Orn(α-tetramethylguanidino)}-NNRPVYIPRPRPPHPRL-OH) | 160 ng·h/mL | 200 ng/mL | 54.9 min | 15.1 mL/min | 33.8 min | 200 ng/mL | 1200 ng·h/mL | 3600 ng/mL | 21 min | 8.4 mL/min | 16.9 min | ~ 90 min | 1512 μg^*min^2*mL^−^1 | still detected | 659 mL | 0.020 min^−^1 | 524 μg^*min^2*mL^−^1 | 77 mL | 7.8 µg/mL | 0.041 min^−^1 | c0 (initial concentration at time point 0 min) ([1]; female, NMRI, 5 mg/kg): 0.22 µg/mL; t1/2 (elimination half life time) ([1]; 20 mg/kg): 17 min; Kidney concentration estimated from detected peptide amount ([2]; estimating the volume of both kidneys as 0.5 mL): 4.8 µg/mL; Peptide level in brain homogenates (not detected, less than LOD) ([2]; female, NMRI): < 18 ng/mL homogenate; Peptide level in brain (not detected, LOD converted to brain weight) [2]: < 37 μg/g brain; Recovered peptide amount in kidneys of treated animals [2]: 2.4 µg/g; Recovery rate in blood relative to the injected peptide amount [2]: below 1%; half-life at 75 μg/mL [3]: ~20 min |
| CC[C@H](C)[C@H](NC(=O)[C@H](Cc1ccc(O)cc1)NC(=O)[C@@H](NC(=O)[C@@H]1CCCN1C(=O)[C@H](CCCNC(=N)N)NC(=O)[C@H](CC(N)=O)NC(=O)[C@H](CC(N)=O)NC(=O)[C@H](CCCN)N=C(N(C)C)N(C)C)C(C)C)C(=O)N1CCC[C@H]1C(=O)N[C@@H](CCCNC(=N)N)C(=O)N1CCC[C@H]1C(=O)N[C@@H](CCCNC(=N)N)C(=O)N1CCC[C@H]1C(=O)N1CCC[C@H]1C(=O)N[C@@H](Cc1c[nH]cn1)C(=O)N1CCC[C@H]1C(=O)N[C@@H](CCCNC(=N)N)C(=O)N[C@@H](CC(C)C)C(N)=O [Api88] ({Orn(α-tetramethylguanidino)}-NNRPVYIPRPRPPHPRL-NH2) | 355 ng·h/mL | 600 ng/mL | 30.5 min | 6.4 mL/min | 17.3 min | 1000 ng/mL | 1900 ng·h/mL | 4100 ng/mL | 23.9 min | 5.4 mL/min | 11.1 min | ~ 90 min | 650 μg^*min^2*mL^−^1 | undetectable | 137 mL | 0.040 min^−^1 | 2730 μg^*min^2*mL^−^1 | 100 mL | 6.2 µg/mL | 0.062 min^−^1 | c0 (initial concentration at time point 0 min) ([1]; 5 mg/kg): 1 µg/mL; Peptide level in brain homogenates (not detected, less than LOD) ([2]; female, NMRI): < 43 ng/mL homogenate; Concentration in urine ([2]; female, NMRI, 20 mg/kg): ~ 0.2 μg/mL; Peptide level in brain (not detected, LOD converted to brain weight) [2]: < 89 μg/g brain; Recovered peptide amount in kidneys of treated animals [2]: 1.8 µg/g; Recovery rate in blood relative to the injected peptide amount [2]: below 1%; Concentration in urine ([2]; 5 mg/kg): below LOD; remaining at 1 h, 75 μg/mL [3]: > 60% |

— paper PMC5357639 (Frontiers in Chemistry, 2017)
